Measured values reported in PMC4993765, “Shikonin Inhibits Intestinal Calcium-Activated Chloride Channels and Prevents Rotaviral Diarrhea” (Frontiers in Pharmacology, 2016).

Biological target: T1, TMEM16A (Homo sapiens, UniProt Q5XXA6)
T1 construct: gene ANO1
T1 sequence (Q5XXA6 1-986): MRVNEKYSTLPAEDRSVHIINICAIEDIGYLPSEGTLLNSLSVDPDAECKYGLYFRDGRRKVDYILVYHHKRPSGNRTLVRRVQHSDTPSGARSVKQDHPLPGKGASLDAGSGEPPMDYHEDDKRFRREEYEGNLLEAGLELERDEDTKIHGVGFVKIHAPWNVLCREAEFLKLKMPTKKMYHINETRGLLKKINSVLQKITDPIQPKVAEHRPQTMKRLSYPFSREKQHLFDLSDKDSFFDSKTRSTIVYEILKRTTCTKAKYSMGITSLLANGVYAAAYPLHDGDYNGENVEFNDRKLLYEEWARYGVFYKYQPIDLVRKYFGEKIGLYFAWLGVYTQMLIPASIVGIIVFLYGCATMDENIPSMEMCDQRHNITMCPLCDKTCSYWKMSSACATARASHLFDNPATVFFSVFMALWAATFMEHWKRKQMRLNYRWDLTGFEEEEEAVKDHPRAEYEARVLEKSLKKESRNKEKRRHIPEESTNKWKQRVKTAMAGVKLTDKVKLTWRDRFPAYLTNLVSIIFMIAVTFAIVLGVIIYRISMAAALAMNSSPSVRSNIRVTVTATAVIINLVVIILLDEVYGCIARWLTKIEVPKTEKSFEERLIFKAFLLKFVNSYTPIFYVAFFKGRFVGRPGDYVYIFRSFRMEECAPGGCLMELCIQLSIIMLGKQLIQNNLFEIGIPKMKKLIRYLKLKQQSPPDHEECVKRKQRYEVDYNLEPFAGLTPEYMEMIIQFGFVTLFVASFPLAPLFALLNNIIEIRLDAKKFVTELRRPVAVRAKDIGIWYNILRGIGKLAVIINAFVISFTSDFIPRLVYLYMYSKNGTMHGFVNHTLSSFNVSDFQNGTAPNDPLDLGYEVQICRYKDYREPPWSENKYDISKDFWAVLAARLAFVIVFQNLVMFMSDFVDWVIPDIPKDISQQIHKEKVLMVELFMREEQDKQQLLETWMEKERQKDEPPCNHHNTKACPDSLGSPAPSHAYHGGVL
Test: short-circuit current (Eact-induced Cl- current) in basolaterally permeabilized FRT cells expressing TMEM16A; also YFP fluorescence quenching
Type: cell-based

Compound: CC(C)=CC[C@@H](O)C1=CC(=O)c2c(O)ccc(O)c2C1=O [shikonin]
- IC50: 1.5 µM
